# Experimental data taken from the supplement of paper PMC10307832.
# Columns and labels:
# Assay in all cases: relative viability (nuclei count vs DMSO), 5 days (fraction); higher = more cells survive
# Dovitinib + Bortezomib = compound: CN1CCN(c2ccc3nc(-c4c(N)c5c(F)cccc5[nH]c4=O)[nH]c3c2)CC1 [Dovitinib] + CC(C)C[C@H](NC(=O)[C@H](Cc1ccccc1)NC(=O)c1cnccn1)B(O)O [Bortezomib] (partner 0.002 µM)
# Summary of the method: (§1)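 A single step with final 0.05% Triton X-100, 1% formaldehyde and 1 ug/ml Hoechst fixed the cells and stained nuclei 5 days after treatment. Lung cancer cell lines in 1536-well plates had been treated by pin tool the day after seeding with one drug alone or a fixed anchor-drug dose plus five library-drug doses (not always all listed) in √10 steps, and nuclei were counted on 4× images. Relative viability is the ratio of nuclei in treated wells to nuclei in vehicle wells, taken as the median of duplicate plates.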
# Dovitinib + Lapatinib = compound: CN1CCN(c2ccc3nc(-c4c(N)c5c(F)cccc5[nH]c4=O)[nH]c3c2)CC1 [Dovitinib] + CS(=O)(=O)CCNCc1ccc(-c2ccc3ncnc(Nc4ccc(OCc5cccc(F)c5)c(Cl)c4)c3c2)o1 [Lapatinib] (partner 2 µM)
# Summary of the method: as §1
# Dovitinib + AZD7762 = compound: CN1CCN(c2ccc3nc(-c4c(N)c5c(F)cccc5[nH]c4=O)[nH]c3c2)CC1 [Dovitinib] + NC(=O)Nc1cc(-c2cccc(F)c2)sc1C(=O)N[C@H]1CCCNC1 [AZD7762] (partner 0.2 µM)
# Summary of the method: as §1
# Dovitinib + Decitabine = compound: CN1CCN(c2ccc3nc(-c4c(N)c5c(F)cccc5[nH]c4=O)[nH]c3c2)CC1 [Dovitinib] + Nc1ncn([C@H]2C[C@H](O)[C@@H](CO)O2)c(=O)n1 [Decitabine] (partner 2 µM)
# Summary of the method: as §1
Cell Line,relative viability (Dovitinib + Bortezomib; first compound 0.02 µM),relative viability (Dovitinib + Bortezomib; first compound 0.06325 µM),relative viability (Dovitinib + Bortezomib; first compound 0.2 µM),relative viability (Dovitinib + Bortezomib; first compound 0.6325 µM),relative viability (Dovitinib + Bortezomib; first compound 2 µM),relative viability (Dovitinib + Lapatinib; first compound 0.02 µM),relative viability (Dovitinib + Lapatinib; first compound 0.06325 µM),relative viability (Dovitinib + Lapatinib; first compound 0.2 µM),relative viability (Dovitinib + Lapatinib; first compound 0.6325 µM),relative viability (Dovitinib + Lapatinib; first compound 2 µM),relative viability (Dovitinib + AZD7762; first compound 0.02 µM),relative viability (Dovitinib + AZD7762; first compound 0.06325 µM),relative viability (Dovitinib + AZD7762; first compound 0.2 µM),relative viability (Dovitinib + AZD7762; first compound 0.6325 µM),relative viability (Dovitinib + AZD7762; first compound 2 µM),relative viability (Dovitinib + Decitabine; first compound 0.02 µM),relative viability (Dovitinib + Decitabine; first compound 0.06325 µM),relative viability (Dovitinib + Decitabine; first compound 0.2 µM),relative viability (Dovitinib + Decitabine; first compound 0.6325 µM),relative viability (Dovitinib + Decitabine; first compound 2 µM)
NCI-H727,0.937,0.733,0.92,0.845,1.27,0.904,0.629,0.673,0.882,0.91,0.639,0.536,0.597,0.637,0.555,0.824,0.685,0.884,1.03,0.926
NCI-H838,0.639,0.699,0.851,0.76,0.758,0.907,1.11,1.05,0.919,0.97,0.864,0.979,0.912,0.986,0.96,0.458,0.452,0.529,0.495,0.46
NCI-H1355,1.31,1.19,1.17,1.2,1.42,0.977,0.945,0.984,1.02,1.13,0.695,0.745,0.746,0.703,0.727,0.363,0.351,0.371,0.336,0.371
NCI-H1437,0.471,0.575,0.493,0.49,0.523,0.813,0.802,0.843,0.821,0.788,1.19,1.09,1.22,1.11,1.09,0.509,0.615,0.592,0.573,0.549
NCI-H1651,0.957,0.961,1.03,1.02,0.91,0.914,1,0.913,0.777,0.929,0.45,0.507,0.505,0.466,0.429,0.578,0.62,0.577,0.652,0.59
NCI-H1666,1,0.87,0.968,0.792,0.842,0.657,0.627,0.667,0.596,0.69,0.876,0.859,0.882,0.855,0.812,0.714,0.718,0.734,0.835,0.8
NCI-H1734,0.845,0.941,0.933,0.948,0.87,1.11,1.02,1.05,1.09,0.503,0.532,0.505,0.475,0.583,0.71,0.49,0.519,0.472,0.506,0.467
NCI-H1755,0.97,0.923,0.957,0.928,0.955,1.08,1.07,1.02,1.05,0.976,0.427,0.461,0.484,0.593,0.436,0.679,0.736,0.756,0.723,0.677
NCI-H1792,0.938,0.935,0.998,1.04,0.918,0.852,0.892,0.952,1.06,0.855,0.559,0.761,0.676,0.796,0.559,0.539,0.6,0.468,0.502,0.505
NCI-H1915,0.873,0.963,0.955,0.91,0.986,0.87,0.955,0.971,0.944,1.02,0.609,0.708,0.705,0.614,0.693,0.26,0.258,0.246,0.251,0.284
NCI-H1975,0.389,0.48,0.377,0.373,0.405,0.899,0.979,0.917,0.89,0.907,0.708,0.577,0.728,0.738,0.653,0.372,0.409,0.4,0.424,0.382
NCI-H1993,1.42,1.14,1.05,1.13,0.941,0.853,0.803,0.952,0.799,0.731,1.01,0.724,0.887,0.985,0.849,0.637,0.598,0.67,0.683,0.622
NCI-H2085,1.05,1.1,1.03,1.21,1.06,0.834,0.785,0.723,0.894,0.818,1.07,1.13,1.04,0.998,1.04,0.606,0.532,0.592,0.573,0.558
NCI-H2087,0.756,1.07,0.805,0.899,0.86,0.893,0.958,1.01,1.02,1.16,1.35,1.38,1.27,1.29,1.31,0.312,0.307,0.269,0.357,0.329
NCI-H2126,1.11,1.09,1.2,1.08,1.07,0.692,0.726,0.744,0.734,0.797,0.982,1.04,1.03,1.04,1,0.605,0.573,0.676,0.556,0.599
NCI-H2347,1.18,0.935,0.907,1.43,1.09,0.588,0.882,1,0.924,0.967,0.701,0.606,0.864,0.774,0.754,0.642,0.545,0.644,0.682,0.623
NCI-H2405,0.871,0.972,1,1.08,0.969,1.1,0.946,1.04,1.09,1.35,0.693,0.781,0.736,0.696,0.78,0.714,0.745,0.832,0.688,0.845
NCI-H3122,0.984,0.977,1.03,1.05,1.01,0.996,1.01,0.967,1.05,1.02,0.926,1.02,0.995,0.925,0.93,0.493,0.431,0.447,0.48,0.374
PC-3 [JPC-3],0.849,0.803,0.899,0.872,0.88,0.483,0.398,0.466,0.488,0.47,0.84,0.855,0.921,0.866,0.827,0.949,0.882,0.859,0.804,0.898
PC-14,0.796,0.906,0.834,0.808,0.819,0.296,0.336,0.308,0.309,0.279,0.309,0.343,0.385,0.351,0.357,0.21,0.224,0.241,0.217,0.22
RERF-LC-KJ,1.11,1.14,1.14,1.06,0.997,0.94,0.884,0.853,0.909,0.825,1.05,0.916,1.03,1.02,0.868,0.709,0.729,0.701,0.685,0.637
